What was measured:
[1] = tested on: human mesenchymal stem cells (hMSC); assay: Neural differentiation of hMSCs: gene expression by real-time PCR; assay type: cell-based
Experimental: To investigate the neural differentiation capacity of the peptides, 25 cm^2 flasks and 12-wells culture plates were coated with sterile aqueous solutions of either NX210 or NS640 at a concentration of 80 μg/cm^2. Coatings were carried out at 37° C. and 5% CO2 over-night prior to cell plating.
On Day 0 (D0), hMSC were seeded at a concentration of 3,000 cells/cm^2 in pre-coated 25 cm^2 flasks or 12-well culture plates in complete medium and culture was placed at 37° C. in a humid environment and under 5% CO2. After 24h, medium was changed and replaced by different combinations of media containing either: MEMalpha—bFGF 12.5 ng/mL—FBS 2%—P/S 0.1%; MEMalpha—bFGF 12.5 ng/mL—FBS 10%—P/S 0.1%; MEMalpha—FBS 2%—P/S 0.1% (control condition); MEMalpha—FBS 10%—P/S 0.1% (control condition). The cells were placed at 37° C. in a humid environment and under 5% CO2, and medium was changed twice a week. On Day 8, medium was replaced by medium containing ATRA in the place of bFGF and thus was changed with: MEMalpha—ATRA […]—FBS 2%—P/S 0.1%; MEMalpha—ATRA 20 μM—FBS 10%—P/S 0.1%; MEMalpha—FBS 2%—P/S 0.1% (control condition); MEMalpha—FBS 10%—P/S 0.1% (control condition). The cells were placed at 37° C. in a humid environment and under 5% CO2. Medium was changed twice a week. […]
Total RNA was extracted using RNAeasy total purification kit following instructions of the manufacturer (Qiagen). cDNA were generated using a High-Capacity cDNA Reverse Transcription kit (Applied Biosystems) as described by the manufacturer.
The expression levels of genes (GFAP, Musashi 1, Nestin, Beta3-Tubuline, MAP-2 and GAPDH) were analyzed by real-time PCR using TaqMan gene Expression Master Mix (Applied Biosystems) on the Applied Biosystems 7900 Real time PCR system (Life technologies). Samples were analyzed in triplicates. Data were normalized using the GAPDH gene as an internal control and relative quantification (RQ) of the genes in a sample was determined according to the equation 2^−Δct.

[2] = tested on: ESCs / neuroepithelial progenitors; assay: Selection of neuroepithelial progenitors from ESC embryoid bodies, Nestin immunostaining; assay type: cell-based
Experimental: For these experiments, the differentiation of ESCs was preferably orientated to the neuronal differentiation pathway, according to the protocol adapted from Okabe et al., (Mechanisms of Development, 59:89-102, 1996).
In brief, to start the differentiation, the ESCs were grown on gelatin without LIF for two days. The cells were carefullly trypsinated to collect small ESC aggregates. Then, these aggregates were transferred on a Petri dish without any coating to produce non-adherent spherical cell bodies, namely the embryoid bodies (EB).
After 5 days of culture, the EB were transferred onto a new Petri dish covered with gelatin to enable cell adhesion.
After 24h of culture, the culture medium with fetal bovine serum 10% was replaced by a culture medium serum free to select neuroepithelial progenitors and the peptide NX210 (SEQ ID NO: 6) was added in the culture medium at a concentration of 0.5 mg/ml.
After 6 days of culture, the maximal content of cells expressing the nestin protein (a cytoskeletal protein specific of the neuroepithelial progenitors) was reached.
The cell population enriched for neuroepithelial progenitors was then trypsinated and seeded at a concentration of 1×10^5 cells/cm^2 on a substrate made up of a polyornithine and laminin mix. […]

“W-S-G-W-S-S-C-S-R-S-C-G (WSGWSSCSRSCG) [NX210]” was tested, and the “effect of peptide coating on the increase in Nestin, βIII-Tubulin and MAP-2 gene expression” value ([1]; bFGF then ATRA, 2% FBS, peptide coating 80 μg/cm2) was “does not modify this increase”, the MAP-2 expression ([1]; bFGF then ATRA, 10% FBS, peptide coating, vs ×0.75 without peptide (FIG. 5)) was 1.21 × and the Nestin expression ([1]; bFGF then ATRA, 10% FBS, peptide coating, vs ×1.2 without peptide (FIG. 5)) was 2 ×. For the same substance, the Nestin expression ([1]; patient no 1, day 5, bFGF 10% without ATRA (FIG. 6)) was 2 ×, the MAP-2 expression ([1]; patient no 2, D5, with bFGF (FIG. 7)) was “increased” and the βIII-Tubuline expression ([1]; patient no 2, after 5 days of culture, with bFGF (FIG. 7)) was “maximized”. For the same substance, the Nestin expression ([1]; patient no 2, bFGF 10% without ATRA, with or without coating (FIG. 7)) was 1.95 ×, the “cells expressing the Nestin protein (neuronal precursors)” value ([2]; 0.5 mg/ml NX210 in serum free medium, then 2 days with FGF2, compared to untreated culture) was “More cells expressing the Nestin protein” and the “response to the specific stimulation by FGF2” value ([2]; during selection of the neuroepithelial progenitors) was “promotes a more efficient response”.

From patent US20200080053A1, “USE OF PEPTIDE COMPOUNDS FOR PROMOTING SURVIVAL, GROWTH AND CELL DIFFERENTIATION” (Axoltis Pharma, priority 2016, published 2020)
